Ki and melting point data for 5 compounds are collected here from US20080139608A1, “2,6,8, Trisubstituted 1-deazapurines and their different uses” (Universiteit Leiden, priority 2006, published 2008).

The target of data set [1] is T1, human adenosine A1 receptor (Homo sapiens, UniProt P30542).
T1 construct: expressed in transfected cells; host or cells: CHO cells
T1 sequence (P30542 1-326): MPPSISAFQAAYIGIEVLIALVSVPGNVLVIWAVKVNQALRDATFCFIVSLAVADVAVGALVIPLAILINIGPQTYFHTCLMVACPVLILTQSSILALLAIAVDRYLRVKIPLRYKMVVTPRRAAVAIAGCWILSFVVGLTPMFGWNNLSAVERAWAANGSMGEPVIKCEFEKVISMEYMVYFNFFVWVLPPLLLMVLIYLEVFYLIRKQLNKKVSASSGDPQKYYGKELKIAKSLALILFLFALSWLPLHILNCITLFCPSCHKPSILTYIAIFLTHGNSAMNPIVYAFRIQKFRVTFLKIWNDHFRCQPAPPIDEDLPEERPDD
Nature of the data set: Radioligand binding assay, displacement of specific [3H]DPCPX binding. Conditions: CHO cells expressing human adenosine A1 receptors; n = 3; read-out: A1 Ki ± SEM, displacement of specific [3H]DPCPX binding. The procedure: Radioligand Binding Studies [^3H]DPCPX was purchased from Amersham. All compounds made were tested in radioligand binding assays to determine their affinities at the human adenosine A1 receptor. The affinities at the A1 receptors were determined on CHO cells expressing the human receptors, using [^3H]DPCPX as the radioligand according to a previously described method.^11
Data Analysis Competition binding data were fit to a single-site binding model and plotted using the software package Prism (Graph Pad, San Diego, Calif., USA). The Cheng-Prusoff equation Ki=IC50/(1+[I]/Kd) was used to calculate Ki values, where Ki is the affinity constant for the competing ligand, [I] is the concentration of the free radioligand, and Kd is the affinity constant for the radioligand.

By Ki is commonly meant the dissociation constant of the complex between target and ligand, obtained from inhibition or displacement. For `CCCc1nc2c(-c3ccccc3)cc(-c3ccccc3)nc2[nH]1` [Compound 6, 2,6-Diphenyl-8-propyl-1-deazapurine], the Ki in data set [1] was determined as 2.45 ± 0.23 nM.
Same read-out and setting: the result for `CC(C)c1nc2nc(-c3ccccc3)cc(-c3ccccc3)c2[nH]1` [Compound 7, 2,6-Diphenyl-8-isopropyl-1-deazapurine] reads 0.61 ± 0.04 nM.
In general, melting point refers to the temperature, or range, at which the solid turns liquid. In turn, `CC(C)CCc1nc2nc(-c3ccccc3)cc(-c3ccccc3)c2[nH]1` [Compound 9, 2,6-Diphenyl-8-isopentyl-1-deazapurine] displayed a melting point of 196 to 197 °C.
On to `c1ccc(-c2cc(-c3ccccc3)c3[nH]c(C4CCCC4)nc3n2)cc1` [Compound 11, 8-Cyclopentyl-2,6-diphenyl-1-deazapurine], for which the Ki in data set [1] was determined as 0.62 ± 0.3 nM.
On the same count and under the same terms, the result for `c1ccc(-c2cc(-c3ccccc3)c3[nH]c(C4CCCCC4)nc3n2)cc1` [Compound 12, 2,6-Diphenyl-8-cyclohexyl-1-deazapurine] reads 0.9 ± 0.21 nM.
